Read-outs that look alike come from different tables or passages of the source.
Columns and labels:
U87-TxR cells = experiment: Reversal of paclitaxel resistance, MTT combination treatment; type: cell-based, Human; settings: 0.2 µM of the compound, 72 h
Procedure: MTT assay was used to assess the viability of U87 and U87-TxR cells (AppliChem GmbH, Taufkirchen, Germany). After reaching the confluence in 25 cm^2 tissue flasks, U87 and U87-TxR cells were trypsinized. Cells were seeded at the optimal density determined in initial experiments: 4000 cell/well into flat-bottomed 96-well tissue culture plates. Following the overnight incubation, cells were treated with Si306, pro-Si306 and dasatinib (1–25 µM) for 72 h. In addition, the combined effects of Si306 and pro-Si306 with PTX were evaluated in MDR GBM cells. To that end, two concentrations of Si306 and pro-Si306 (0.2 μM and 0.5 μM) were combined with increasing concentrations of PTX (0.1–2 μM) in simultaneous treatment. The sensitization of U87-TxR cells to PTX was studied after 72 h. Briefly, MTT was added to each well in a final concentration of 0.2 mg/mL for 4 h to induce the formation of the formazan in cells with intact/viable mitochondria. Then, produced formazan was dissolved in DMSO, and the absorbance was measured at 540 nm on a microplate reader (LKB 5060-006 Micro Plate Reader, Vienna, Austria). IC50 values were calculated by nonlinear regression analysis using GraphPad Prism 6.0 for Windows (GraphPad Software, La Jolla, CA, USA).

[1] = molecular target: Human Serum Albumin (HSA) (Homo sapiens, UniProt P02768); experiment: Binding fluorimetric assay, HSA; type: in vitro ADME
Procedure: (§1) In order to determine the binding affinity for Si306 and pro-Si306 to HSA (human serum albumin) and AGP (alpha-1-acid glycoprotein), the protein fluorescence has been monitored by spectroscopy. The quantitative analysis was performed using black 96 multiwell plates: in each well, a fixed concentration of HSA or AGP (10 µM in phosphate buffer 1 mM) was added with different amounts of the tested compound (0.1 µM to 500 µM). Plates were gently shacked and after 30 min at room temperature for equilibration, spectra were recorded from 300 to 400 nm, after excitation at 295 nm, by using a Perkin Elmer EnVision Multilabel Reader 2014 spectrofluorimeter. Finally, spectra were acquired with EnVision Manager ver.1.13 software (Walthman, MA, USA). The obtained non fluorescence quenching percentages were plotted against drug concentrations and the relative KD values were calculated using GraphPad software (version 6.0).

[2] = tested on: Alpha-1-acid glycoprotein (AGP); experiment: Binding fluorimetric assay, AGP; type: in vitro ADME; settings: 10 µM AGP, fluorescence quenching
Procedure: as §1

[3] = Brain and tissue distribution of Si306 in mice; type: in vivo, BALB/C mice; settings: for Tmax / Kp / AUC(0-inf) / Cmax / half-life / AUC(0-t) / MRT inf: male, BALB/C, mouse; for Tmax / AUC(0-inf) / Cmax / half-life / AUC(0-t) / MRT inf: brain; for Kp: brain/plasma, read-out: AUC brain to plasma ratio; for AUC(0-t): read-out: AUC 0→24 h; for MRT inf: read-out: MRT 0→∞
Source text: Naive male BALB/C mice (weight 20 ± 2 g) were ordered from Charles River (Milan, Italy). All animals were pathogen free and approximately 4–6 weeks old when they arrived. The adaption period to the environment was not less than seven days. All the procedures used on animals in this study were approved by Institutional Animal Use and Care Committee at Università Cattolica del S. Cuore, Rome and Università degli Studi di Siena and authorized by the Italian Ministry of Health, according to Legislative Decree 116/92, which implemented the European Directive 86/609/EEC on laboratory animal protection in Italy. Methods for all the conducted experiments were performed in accordance with regulations, standards and guidelines of the Animal Use and Care Committee of Università Cattolica del S. Cuore, Rome and Università degli Studi di Siena.
Si306 was dissolved in a mixture of Tween80 (10% v/v), benzyl alcohol (1% v/v) and a 10 mM solution of citric acid. The compound was administered intravenously as a single dose of 25 mg/kg in 200 μL of volume. At several time points (0.08, 0.25, 0.5, 1, 2, 4, 8, 24 h), after drug administration, mice were treated i.p. with heparin (5000 U/kg) and sacrificed under CO2. Five animals were used for each time point. Blood, brain, liver and kidneys were collected for the following quantitative analysis. Approximately 500–600 μL of blood was collected from each animal and transferred to a tube containing 10 μL of heparin and mixed briefly.
For the oral PK studies, mice received a single dose of 50 mg/kg of Si306 (dissolved in the same vehicle used for i.v. studies) in 400 μL of final volume by gavage. At nine time-points (0.25, 0.5, 1, 1.5, 2, 3, 4, 8, 24 h) after administration, mice were sacrificed under CO2. Blood and organs were collected and analyzed by LC-MS. The pharmacokinetic parameters, including area under concentration-time curve (AUC), maximum plasma concentration (Cmax), half-time (t1/2), apparent volume of distribution (V), plasma clearance (CL) and mean residence time (MRT), were calculated by non-compartmental analysis using PKSolver software (ver. 1.0, Nanjing, China).
Blood samples were centrifuged at 5000 rpm for 20 min to separate the plasma fraction, which was subsequently collected in a test tube. Acetonitrile (1 mL, with Si34 as internal standard at the concentration of 5 μg/mL) was added to each sample to denature proteins. Samples were centrifuged at 5000 rpm for 20 min, and the supernatant was recovered, dried under vacuum, solubilized again in methanol (100 μL), and analyzed. Brain and the other organs were homogenized using a T10 basic ULTRA-TURRAX® homogenizer (Bioclass, Pistoia, Italy); in order to extract the compound from the tissue, acetonitrile internal standard solution was added, and the homogenate was centrifuged at 5000 rpm for 20 min. The supernatant was recovered, filtered and analyzed by LC-MS. The quantification of each compound was performed by reference to the appropriate calibration curve. Representative LC-MS chromatograms for Si306 and for Si34 are reported in Figure S2 and Figure S3 respectively.

[4] = 10 µM HSA, fluorescence quenching

Chain of Human Serum Albumin (HSA) (P02768 25-609): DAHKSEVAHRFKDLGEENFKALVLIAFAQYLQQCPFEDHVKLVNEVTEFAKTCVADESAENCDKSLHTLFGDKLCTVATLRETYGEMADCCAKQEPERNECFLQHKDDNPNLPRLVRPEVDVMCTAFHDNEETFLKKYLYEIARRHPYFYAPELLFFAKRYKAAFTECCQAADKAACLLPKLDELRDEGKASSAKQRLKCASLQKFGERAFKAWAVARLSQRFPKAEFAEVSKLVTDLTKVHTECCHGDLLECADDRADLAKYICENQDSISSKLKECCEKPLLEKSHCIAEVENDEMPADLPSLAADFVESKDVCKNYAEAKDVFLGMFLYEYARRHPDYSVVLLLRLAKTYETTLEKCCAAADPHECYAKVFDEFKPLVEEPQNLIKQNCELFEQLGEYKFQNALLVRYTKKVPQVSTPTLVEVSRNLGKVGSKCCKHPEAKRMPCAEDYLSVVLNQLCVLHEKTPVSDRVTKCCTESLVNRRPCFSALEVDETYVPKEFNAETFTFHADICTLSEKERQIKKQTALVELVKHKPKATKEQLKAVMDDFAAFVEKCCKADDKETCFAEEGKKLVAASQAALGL

ClC(Cn1ncc2c(Nc3cccc(Br)c3)nc(SCCN3CCOCC3)nc21)c1ccccc1 (stereo not shown) [Si306]
Relative Reversal of PTX resistance (U87-TxR cells): 1.16 ^ns
BMAX [1, 4]: 61.05 ± 2.8
Kd [1, 4]: 0.35 ± 0.1 µM
affinity for albumin, fold greater than pro-Si306 ([1]; HSA): 60 fold
BMAX [2]: 88.38 ± 1.8
Kd at 30 min ([2]; alpha-1-acid glycoprotein (10 µM) in phosphate buffer): 11.5 ± 1 µM
maximum concentration into the brain ([3]; i.v., 25 mg/kg): 2.94 µg/g
Tmax ([3]; iv, 25 mg/kg, i.v., 25 mg/kg, read-out: Tmax): 4.8 min
Tmax ([3]; iv, 25 mg/kg, i.v., 25 mg/kg, read-out: time of maximum concentration into the brain (converted)): 5 min
Tmax ([3]; po, 50 mg/kg, p.o., 50 mg/kg, read-out: Tmax): 30 min
Tmax ([3]; po, 50 mg/kg, p.o., 50 mg/kg, read-out: time of maximum concentration into the brain (converted)): 30 min
Kp ([3]; iv, 25 mg/kg): 0.095
Kp ([3]; oral route, 50 mg/kg): 1.19
AUC(0-inf) ([3]; iv, 25 mg/kg): 2150 ng·h/mL
Cmax ([3]; iv, 25 mg/kg): 2940 ng/g
half-life ([3]; iv, 25 mg/kg): 158 min
AUC(0-t) ([3]; iv, i.v., 25 mg/kg): 2140 ng·h/mL
MRT inf ([3]; iv, i.v., 25 mg/kg): 88.8 min
AUC(0-inf) ([3]; po, 50 mg/kg): 18000 ng·h/mL
Cmax ([3]; po, 50 mg/kg): 10600 ng/g
half-life ([3]; po, 50 mg/kg): 126 min
AUC(0-t) ([3]; po, p.o., 50 mg/kg): 18000 ng·h/mL
MRT inf ([3]; po, p.o., 50 mg/kg): 72 min
AUC brain/plasma, fold higher p.o. with respect to i.v. ([3]; p.o. 50 mg/kg vs i.v. 25 mg/kg): 12 fold
maximum concentration into the brain ([3]; p.o., 50 mg/kg): 10.65 µg/g

— PMC6628362, “A New Strategy for Glioblastoma Treatment: In Vitro and In Vivo Preclinical Characterization of Si306, a Pyrazolo[3,4-d]Pyrimidine Dual Src/P-Glycoprotein Inhibitor” (Cancers, 2019)
